Experimental data as given in patent US7888386B2, “3-(phenoxyphenylmethyl)pyrrolidine compounds” (Theravance, Inc., priority 2008, dated 2011).
Like-named read-outs stand apart in the source and are kept apart here.

Columns and labels:
hNET = biological target: T1, hNET (Homo sapiens, UniProt P23975); assay: hNET binding assay (Assay 1); settings: read-out: NET pKi (converted)
T1 construct: expressed in transfected cells; host or cells: HEK-293 derived cell line, stably transfected; membrane preparation
Summary of the method: (§1)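 Membranes from HEK-293 cells stably expressing human NET or SERT competed test compound against ^3H-nisoxetine (hNET) or ^3H-citalopram (hSERT). Buffer was 50 mM Tris-HCl pH 7.4, 120 mM NaCl, 5 mM KCl, 0.1% BSA and 400 μM ascorbic acid.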

hSERT = biological target: T2, hSERT (Homo sapiens, UniProt P31645); assay: hSERT binding assay (Assay 1)
T2 construct: expressed in transfected cells; host or cells: HEK-293 derived cell line, stably transfected; membrane preparation
Summary of the method: as §1

[1] = ratio of SERT Ki to NET Ki from binding assays
[2] = membranes of HEK-293 cells expressing hNET, 1.0 nM 3H-nisoxetine
[3] = ratio of binding Ki at hSERT to Ki at hNET, rounded off to the nearest tenth
[4] = ratio of SERT Ki to NET Ki (binding)

T2 sequence (P31645 whole entry): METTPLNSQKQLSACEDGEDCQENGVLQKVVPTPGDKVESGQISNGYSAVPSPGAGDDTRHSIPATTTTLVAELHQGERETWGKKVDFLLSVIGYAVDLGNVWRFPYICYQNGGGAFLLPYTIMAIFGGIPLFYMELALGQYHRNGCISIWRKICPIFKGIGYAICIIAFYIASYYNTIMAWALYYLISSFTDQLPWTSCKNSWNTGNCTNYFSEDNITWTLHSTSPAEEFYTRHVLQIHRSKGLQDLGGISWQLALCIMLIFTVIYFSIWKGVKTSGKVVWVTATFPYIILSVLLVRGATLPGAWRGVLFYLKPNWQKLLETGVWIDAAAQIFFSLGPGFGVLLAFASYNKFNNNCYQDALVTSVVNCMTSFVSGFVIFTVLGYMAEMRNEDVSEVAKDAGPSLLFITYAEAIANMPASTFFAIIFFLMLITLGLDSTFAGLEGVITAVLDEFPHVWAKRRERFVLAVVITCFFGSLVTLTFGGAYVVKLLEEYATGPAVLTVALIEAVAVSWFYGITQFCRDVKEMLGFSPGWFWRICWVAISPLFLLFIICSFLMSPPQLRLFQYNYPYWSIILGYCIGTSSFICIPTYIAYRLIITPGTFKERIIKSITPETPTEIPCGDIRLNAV
T1 sequence (P23975 whole entry): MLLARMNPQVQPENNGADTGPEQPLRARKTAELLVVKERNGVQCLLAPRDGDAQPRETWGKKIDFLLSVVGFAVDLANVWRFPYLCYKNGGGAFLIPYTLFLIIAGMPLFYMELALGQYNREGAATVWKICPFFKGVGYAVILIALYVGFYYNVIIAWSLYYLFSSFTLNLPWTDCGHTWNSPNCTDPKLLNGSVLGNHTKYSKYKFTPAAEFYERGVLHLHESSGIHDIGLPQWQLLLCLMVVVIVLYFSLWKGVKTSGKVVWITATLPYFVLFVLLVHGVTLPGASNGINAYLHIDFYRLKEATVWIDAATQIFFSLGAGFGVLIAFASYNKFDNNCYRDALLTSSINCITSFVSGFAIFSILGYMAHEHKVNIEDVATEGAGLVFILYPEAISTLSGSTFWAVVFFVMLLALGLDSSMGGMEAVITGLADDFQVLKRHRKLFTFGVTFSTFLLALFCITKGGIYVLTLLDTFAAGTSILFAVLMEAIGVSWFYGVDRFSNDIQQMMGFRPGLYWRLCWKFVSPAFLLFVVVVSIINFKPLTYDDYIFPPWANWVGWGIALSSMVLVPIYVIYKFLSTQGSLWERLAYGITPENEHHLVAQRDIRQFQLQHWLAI

For COC(=O)c1cccc(Cl)c1O[C@@H](c1ccccc1)[C@H]1CCNC1 [31-17], the Ki (hNET; hNET binding assay) was 3.16 nM and the “SERT Ki/NET Ki” value (hSERT; [1]) was 25.

With Cc1c(Cl)cccc1OC(c1ccccc1)C1CCNC1 (stereo not shown) [Compound 25-20] the Ki (hNET; [2]) was 0.631 nM and the “SERT Ki/NET Ki” value (hSERT; [3]) was 0.2.

For CC(C)Oc1ccccc1OC(c1ccccc1)C1CCNC1 (stereo not shown) [Compound 19-17], the Ki (hNET; [2]) was 3.16 nM and the “SERT Ki/NET Ki” value (hSERT; [3]) was 40.

With CSc1ccccc1OC(c1ccccc1)C1CCNC1 (stereo not shown) [Compound 19-29] the Ki (hNET; [2]) was 0.631 nM and the “SERT Ki/NET Ki” value (hSERT; [3]) was 25.

With Cc1ccc(Cl)c(OC(c2ccccc2)C2CCNC2)c1F (stereo not shown) [40-27] the Ki (hNET; hNET binding) was 0.251 nM and the “SERT Ki/NET Ki” value (hSERT; [4]) was 5.

With COc1ccccc1OC(c1ccccc1OC(F)(F)F)C1CCNC1 (stereo not shown) [Compound 20-23] the Ki (hNET; [2]) was 5.01 nM and the “SERT Ki/NET Ki” value (hSERT; [3]) was 1.6.

With CCc1cc(F)ccc1OC(c1ccccc1)C1CCNC1 (stereo not shown) [27-23] the Ki (hNET; hNET binding assay) was 1 nM and the “SERT Ki/NET Ki” value (hSERT; [1]) was 0.8.

In the case of c1ccc(Cc2ccccc2OC(c2ccccc2)C2CCNC2)cc1 (stereo not shown) [Compound 19-20], the Ki (hNET; [2]) is reported as 7.94 nM and the “SERT Ki/NET Ki” value (hSERT; [3]) is reported as 1.6.

In the case of COc1ccccc1O[C@@H](c1cc(C)cc(F)c1)[C@H]1CCNC1 (racemic) [Compound 20-36], the Ki (hNET; [2]) is reported as 1.26 nM and the “SERT Ki/NET Ki” value (hSERT; [3]) is reported as 7.9.

Clc1ccc(Oc2cccc(OC(c3ccccc3)C3CCNC3)c2)cc1 (stereo not shown) [Compound 21-16] was tested, and the Ki (hNET; [2]) was 6.31 nM and the “SERT Ki/NET Ki” value (hSERT; [3]) was 0.3.

Fc1cccc(OC(c2ccccc2)C2CCNC2)c1F (stereo not shown) [Compound 25-1] was tested, and the Ki (hNET; [2]) was 0.794 nM and the “SERT Ki/NET Ki” value (hSERT; [3]) was 32.

In the case of COc1ccc(Cl)cc1OC(c1ccccc1)C1CCNC1 (stereo not shown) [29-21], the Ki (hNET; hNET binding assay) is reported as 3.16 nM and the “SERT Ki/NET Ki” value (hSERT; [1]) is reported as 1.

In the case of COc1ccccc1O[C@@H](c1cc(C)cc(F)c1)[C@@H]1CCNC1 (racemic) [Compound 20-37], the Ki (hNET; [2]) is reported as 6.31 nM and the “SERT Ki/NET Ki” value (hSERT; [3]) is reported as 13.

In the case of COc1ccccc1OC(c1cccc(F)c1)C1CCNC1 (stereo not shown) [Compound 20-15], the Ki (hNET; [2]) is reported as 5.01 nM and the “SERT Ki/NET Ki” value (hSERT; [3]) is reported as 4.

In the case of COc1ccc(F)cc1O[C@H](c1ccccc1)[C@@H]1CCNC1 [29-25], the Ki (hNET; hNET binding assay) is reported as 7.94 nM and the “SERT Ki/NET Ki” value (hSERT; [1]) is reported as 0.3.

Fc1c(F)c(F)c(O[C@@H](c2ccccc2)[C@H]2CCNC2)c(F)c1F [49-1] was tested, and the Ki (hNET; hNET binding, the tables list only compounds with NET pKi≧8) was 3.98 nM and the “SERT Ki/NET Ki” value (hSERT; ratio of binding Ki at SERT to Ki at NET, the tables list only compounds with a ratio in the range 0.1-100) was 2.5.

For NC(=O)c1cccc(C(Oc2c(F)ccc(F)c2Cl)C2CCNC2)c1 (stereo not shown) [41-36], the Ki (hNET; hNET binding) was 1 nM and the “SERT Ki/NET Ki” value (hSERT; [4]) was 7.9.

COc1cccc(C(Oc2ccccc2C(C)C)C2CCNC2)c1 (stereo not shown) [Compound 20-10] was tested, and the Ki (hNET; [2]) was 5.01 nM and the “SERT Ki/NET Ki” value (hSERT; [3]) was 2.5.

For Fc1cc(F)cc([C@H](Oc2cc(Cl)ccc2Cl)[C@H]2CCNC2)c1 [30-4], the Ki (hNET; hNET binding assay) was 3.16 nM and the “SERT Ki/NET Ki” value (hSERT; [1]) was 2.5.

With Fc1cc(F)cc(C(Oc2c(Cl)ccc(Cl)c2Cl)C2CCNC2)c1 (stereo not shown) [41-11] the Ki (hNET; hNET binding) was 0.398 nM and the “SERT Ki/NET Ki” value (hSERT; [4]) was 0.8.

For COc1cc(Cl)ccc1O[C@@H](c1cc(F)cc(F)c1)[C@H]1CCNC1 [28-19], the Ki (hNET; hNET binding assay) was 1 nM and the “SERT Ki/NET Ki” value (hSERT; [1]) was 0.8.

With COc1ccc(F)cc1O[C@@H](c1cc(F)cc(F)c1)[C@H]1CCNC1 [30-5] the Ki (hNET; hNET binding assay) was 0.501 nM and the “SERT Ki/NET Ki” value (hSERT; [1]) was 79.

For COc1cc(Cl)c(F)cc1OC(c1ccccc1)C1CCNC1 (stereo not shown) [42-8], the Ki (hNET; hNET binding) was 1.26 nM and the “SERT Ki/NET Ki” value (hSERT; [4]) was 0.4.

With Fc1cc(F)cc(C(Oc2c(F)ccc(F)c2F)C2CCNC2)c1 (stereo not shown) [41-2] the Ki (hNET; hNET binding) was 2.51 nM and the “SERT Ki/NET Ki” value (hSERT; [4]) was 1.

For Fc1cc(F)c(F)c(OC(c2ccccc2Cl)C2CCNC2)c1 (stereo not shown) [39-2], the Ki (hNET; hNET binding) was 6.31 nM and the “SERT Ki/NET Ki” value (hSERT; [4]) was 0.6.

In the case of Fc1ccc(Cl)cc1OC(c1ccccc1)C1CCNC1 (stereo not shown) [29-4], the Ki (hNET; hNET binding assay) is reported as 1.26 nM and the “SERT Ki/NET Ki” value (hSERT; [1]) is reported as 1.6.

For N#Cc1cccc([C@@H](Oc2c(F)ccc(F)c2Cl)[C@@H]2CCNC2)c1 [41-33], the Ki (hNET; hNET binding) was 0.794 nM and the “SERT Ki/NET Ki” value (hSERT; [4]) was 0.4.

With Fc1cccc(O[C@H](c2ccccc2)[C@@H]2CCNC2)c1F [Compound 25-2] the Ki (hNET; [2]) was 6.31 nM and the “SERT Ki/NET Ki” value (hSERT; [3]) was 0.2.

In the case of Fc1cc(F)c(OC(c2ccccc2)C2CCNC2)cc1F (stereo not shown) [42-1], the Ki (hNET; hNET binding) is reported as 7.94 nM and the “SERT Ki/NET Ki” value (hSERT; [4]) is reported as 1.6.

Cc1cc(F)ccc1OC(c1ccccc1)C1CCNC1 (stereo not shown) [27-13] was tested, and the Ki (hNET; hNET binding assay) was 3.16 nM and the “SERT Ki/NET Ki” value (hSERT; [1]) was 0.3.

For Fc1cccc(C(Oc2ccccc2Cl)C2CCNC2)c1 (stereo not shown) [Compound 20-4], the Ki (hNET; [2]) was 2.51 nM and the “SERT Ki/NET Ki” value (hSERT; [3]) was 0.63.

In the case of Brc1cccc(OC(c2ccccc2)C2CCNC2)c1 (stereo not shown) [Compound 21-5], the Ki (hNET; [2]) is reported as 3.16 nM and the “SERT Ki/NET Ki” value (hSERT; [3]) is reported as 0.2.

For Fc1cc(F)cc(C(Oc2cc(Cl)ccc2F)C2CCNC2)c1 (stereo not shown) [30-1], the Ki (hNET; hNET binding assay) was 1.26 nM and the “SERT Ki/NET Ki” value (hSERT; [1]) was 3.2.

For Cc1ccc(F)c(OC(c2cc(F)cc(F)c2)C2CCNC2)c1Cl (stereo not shown) [41-29], the Ki (hNET; hNET binding) was 0.251 nM and the “SERT Ki/NET Ki” value (hSERT; [4]) was 0.5.

For Cc1ccc(Cl)c(O[C@H](c2cc(F)cc(F)c2)[C@@H]2CCNC2)c1F [41-9], the Ki (hNET; hNET binding) was 0.794 nM and the “SERT Ki/NET Ki” value (hSERT; [4]) was 0.8.
